# According to US20220273631A1, “METHOD FOR TREATING SEXUAL DYSFUNCTION” (Catalyst Pharmaceuticals, Inc., priority 2019, published 2022):
# System: subject two
# Test: International Index of Erectile Function (IIEF) self-report before and after 4-week oral treatment
# Type: in vivo, human
# Parameters: key to IIEF question 1 score: able to get an erection during sexual activity / IIEF question 4 score: able to maintain erection after penetration / IIEF question 7 score: attempted intercourse satisfactory: each question scored 0-5
# Conditions: for IIEF question 1 score: able to get an erection during sexual activity / IIEF question 2 score: erections hard enough for penetration / IIEF question 3 score: able to penetrate partner when attempting intercourse / IIEF question 4 score: able to maintain erection after penetration / IIEF question 5 score: difficulty to maintain erection to completion of intercourse / IIEF question 6 score: attempts for sexual intercourse / IIEF question 7 score: attempted intercourse satisfactory / IIEF question 8 score: enjoyment of sexual intercourse / IIEF question 9 score: ejaculated with sexual stimulation or intercourse / IIEF question 10 score: feeling of orgasm or climax / IIEF question 11 score: how often felt sexual desire / IIEF question 12 score: level of sexual desire / IIEF question 13 score: satisfaction with overall sex life / IIEF question 14 score: satisfaction with sexual relationship with partner / IIEF question 15 score: confidence to get and keep an erection: post-treatment IIEF
# Source text: The “International Index of Erectile Function” or “IIEF” is a self-report inventory consisting of 15 questions and 5 functional domains, which was developed for use in determining efficacy of treatment in controlled clinical trials. The IIEF has high sensitivity and specificity for detecting real treatment effects or the lack of treatment effects in patients with ED of broad-spectrum etiology. A score of 0-5 is awarded to each of the 15 questions that examine the 4 main domains of male sexual function: erectile function, orgasmic function, sexual desire, and intercourse satisfaction. Rosen, R., et al. (in Urology 49:822-830 (1997)) describe a study where the IIEF was tested in a series of 111 men with […] and 109 age-matched, normal volunteers. In some embodiments, the therapeutic efficacy of 3,4-diaminopyridine, or a pharmaceutically acceptable thereof, in the present methods in male subjects can be assessed by the Brief Male Sexual Function Inventory (BSFI) described by, for example, Mykletun et al., BJU International 97:316-323 (2005). In some embodiments, the Male Sexual Health Questionnaire (MSHQ) can be used to assess sexual function and satisfaction in older men with urogenital symptoms of lower urinary tract and sexual dysfunction. See, e.g., Rosen, et al., Urology 64(4):777-782 (2004). In some embodiments, the therapeutic efficacy of 3,4-diaminopyridine, or a pharmaceutically acceptable thereof, in the present methods in male subjects, can be assessed by the 15-question International Index of Erectile Function (IIEF) described by, for example, Rosen et al., Urology 49:822-830 (1997). […] The subject then orally self-administered a total daily dose of 60 mg (4 times 15 mg) of 3,4-diaminopyridine phosphate salt for 4 weeks. The last dose of each day was self-administered at about 8:30 pm. The timing of their sexual activity, if any, was at about 11:30 am (after the 11 am dose) or at about 4 pm. After the 4-week treatment period, the subject self-reported sexual functioning for the past 4 weeks using the IIEF questionnaire (“the post-treatment IIEF”). […] The subject then orally self-administered a total daily dose of 80 mg (4 times 20 mg) of 3,4-diaminopyridine phosphate salt for 4 weeks. The last dose of each day was self-administered at about 6:30 pm. The timing of their sexual activity, if any, was at about 7:30 pm. After the 4-week treatment period, the subject self-reported sexual functioning for the past 4 weeks using the IIEF questionnaire (“the post-treatment IIEF”).
# [1] = Example 4, subject, 60 mg daily (4 times 15 mg) orally for 4 weeks
# [2] = Example 4, subject, 60 mg daily orally for 4 weeks
# [3] = Example 4, subject, 60 mg daily orally for 4 weeks, maximum score 10, pre-treatment score 4
# [4] = Example 5, subject, 80 mg daily (4 times 20 mg) orally for 4 weeks
structure (smiles),measurement,setting,value
"Nc1ccncc1N.O=P(O)(O)O [3,4-diaminopyridine phosphate salt]",IIEF question 1 score: able to get an erection during sexual activity,[1],4
same,IIEF question 2 score: erections hard enough for penetration,[1],4
same,IIEF question 3 score: able to penetrate partner when attempting intercourse,[1],4
same,IIEF question 4 score: able to maintain erection after penetration,[1],3
same,IIEF question 5 score: difficulty to maintain erection to completion of intercourse,[1],4
same,IIEF question 6 score: attempts for sexual intercourse,[1],3
same,IIEF question 7 score: attempted intercourse satisfactory,[1],4
same,IIEF question 8 score: enjoyment of sexual intercourse,[1],4
same,IIEF question 9 score: ejaculated with sexual stimulation or intercourse,[1],4
same,IIEF question 10 score: feeling of orgasm or climax,[1],4
same,IIEF question 11 score: how often felt sexual desire,[1],5
same,IIEF question 12 score: level of sexual desire,[1],4
same,IIEF question 13 score: satisfaction with overall sex life,[1],4
same,IIEF question 14 score: satisfaction with sexual relationship with partner,[1],4
same,IIEF question 15 score: confidence to get and keep an erection,[1],4
same,arousal (subject report),[2],more aroused
same,overall sexual performance (subject report),[2],better
same,effect on all the 5 IIEF domains of male sexual function,"Example 4, subject, 60 mg daily orally for 4 weeks, Table 3",improved
same,"Post-Treatment Score, IIEF domain B. Orgasmic Function (questions 9 and 10)",[3],8
same,"Post-Treatment Score, IIEF domain E. Overall Satisfaction (questions 13 and 14)",[3],8
same,"Post-Treatment Score, IIEF domain C. Sexual Desire (questions 11 and 12)","Example 4, subject, 60 mg daily orally for 4 weeks, maximum score 10, pre-treatment score 5",9
same,"Post-Treatment Score, IIEF domain D. Intercourse Satisfaction (questions 6-8)","Example 4, subject, 60 mg daily orally for 4 weeks, maximum score 15, pre-treatment score 5",11
same,"Post-Treatment Score, IIEF domain A. Erectile Function (questions 1-5 and 15)","Example 4, subject, 60 mg daily orally for 4 weeks, maximum score 30, pre-treatment score 8",23
same,IIEF question 1 score: able to get an erection during sexual activity,[4],4
same,IIEF question 2 score: erections hard enough for penetration,[4],4
same,IIEF question 3 score: able to penetrate partner when attempting intercourse,[4],4
same,IIEF question 4 score: able to maintain erection after penetration,[4],3
same,IIEF question 5 score: difficulty to maintain erection to completion of intercourse,[4],4
same,IIEF question 6 score: attempts for sexual intercourse,[4],3
same,IIEF question 7 score: attempted intercourse satisfactory,[4],4
same,IIEF question 8 score: enjoyment of sexual intercourse,[4],4
same,IIEF question 9 score: ejaculated with sexual stimulation or intercourse,[4],4
same,IIEF question 10 score: feeling of orgasm or climax,[4],4
same,IIEF question 11 score: how often felt sexual desire,[4],5
same,IIEF question 12 score: level of sexual desire,[4],4
same,IIEF question 13 score: satisfaction with overall sex life,[4],4
same,IIEF question 14 score: satisfaction with sexual relationship with partner,[4],4
same,IIEF question 15 score: confidence to get and keep an erection,[4],4
same,overall sexual performance (subject report),"Example 5, subject, 80 mg daily orally for 4 weeks",better
